Laboratory results reported in patent US4910195A, “Dihydropyridine derivatives” (Green Cross Corporation, priority 1986, dated 1990).

Experiment: Hypotensive effect, systolic pressure by indirect tail-cuff method without anesthesia, oral administration
Assay type: in vivo, male rats, 10- to 11-week-old
Details: rats, 10 mg/kg, suspended in 10% HCO-60
Experimental: An experiment was conducted to investigate the hypotensive effects of the dihydropyridine derivatives (I) and acid addition salts thereof on 10- to 11-week-old male rats (3 to 5 animals per group).
For blood pressure determination, systolic pressure was measured without anesthesia by an indirect tail-cuff method using a sphygmomanometer (PE-300, Narco Bio-System).
Each of the test compounds was suspended in 10% HCO-60 (polyoxyethylated castor oil produced by Nikko Chemicals K.K.) and administered orally to the animals in a dose of 10 mg/kg. Blood pressure measurements were conducted at predetermined time intervals.

COC(=O)C1=C(C)NC(C)=C(C(=O)OCCN(C)Cc2ccccc2)C1c1cccc([N+](=O)[O-])c1 (centres unmarked) [nicardipine]
50% recovery time (time required for the reduced blood pressure to return to half the maximal reduction): 3.1 h
maximum blood pressure fall: 20%
